What all share (type): cell-based
For assay [1], the system named is Staphylococcus aureus A-5278. Briefly: In vitro agar dilution MIC, organism code CC. To be noted: unit assumed. The procedure:
(§1) Representative compounds of the present invention were assayed in vitro for antibacterial activity as follows: Twelve petri dishes containing successive aqueous dilutions of the test compound mixed with 10 mL of sterilized Brain Heart Infusion (BHI) agar (Difco 0418-01-5) were prepared. Each plate was inoculated with 1:100 (or 1:10 for slow-growing strains, such as Micrococcus and Streptococcus) dilutions of up to 32 different microorganisms, using a Steers replicator block. The inoculated plates were incubated at 35-37° C. for 20 to 24 hours. In addition, a control plate, using BHI agar containing no test compound, was prepared and incubated at the beginning and end of each test.
(§2) An additional plate containing a compound having known susceptibility patterns for the organisms being tested and belonging to the same antibiotic class as the test compound was also prepared and incubated as a further control, as well as to provide test-to-test comparability.
(§3) After incubation, each plate was visually inspected. The minimum inhibitory concentration (MIC) was defined as the lowest concentration of drug yielding no growth, a slight haze, or sparsely isolated colonies on the inoculum spot as compared to the growth control.

Assay [2] deals with Streptococcus pneumoniae ATCC 6303. Briefly: In vitro agar dilution MIC, organism code XX. To be noted: unit assumed. The procedure: as §1, §2, §3
The test system of assay [3] is Streptococcus pneumoniae 5649. Kind of assay: In vitro agar dilution MIC, organism code ZZA. As to conditions: unit assumed. How it is done:
as §1, §2, §3

For assay [4], the system named is Haemophilis influenzae DILL AMP R. Briefly: In vitro agar dilution MIC, organism code WW. To be noted: unit assumed. How it is done: as §1, §2, §3
Assay [5] concerns Streptococcus pyogenes EES61. Kind of assay: In vitro agar dilution MIC, organism code LL. As to conditions: unit assumed. The procedure: as §1, §2, §3
Assay [6] relates to Staphylococcus aureus ATCC 6538P. Briefly: In vitro agar dilution MIC, organism code AA. To be noted: unit assumed. The procedure: as §1, §2, §3
The test system of assay [7] is Streptococcus pneumoniae 5979. Kind of assay: In vitro agar dilution MIC, organism code ZZ. As to conditions: unit assumed. How it is done:
as §1, §2, §3

Assay [8] deals with Streptococcus pyogenes 930. Briefly: In vitro agar dilution MIC, organism code MM. To be noted: unit assumed. The procedure: as §1, §2, §3
Assay [9] concerns Staphylococcus aureus A5177. Kind of assay: In vitro agar dilution MIC, organism code BB. As to conditions: in µg/mL (unit assumed). The procedure:
as §1, §2, §3

Assay [10] relates to Streptococcus pyogenes PIU 2548. Kind of assay: In vitro agar dilution MIC, organism code NN. To be noted: unit assumed. The procedure: as §1, §2, §3
Assay [11] concerns Enterococcus faecium ATCC 8043. Kind of assay: In vitro agar dilution MIC, organism code II. To be noted: Table 1B, unit assumed. How it is done: as §1, §2, §3
The subject of assay [12] is Micrococcus luteus ATCC 9341. Kind of assay: In vitro agar dilution MIC, organism code OO. To be noted: Table 1B, unit assumed. How it is done: as §1, §2, §3
For assay [13], the system named is Nocardia asteroides ATCC 9970. Kind of assay: In vitro agar dilution MIC, organism code VV. As to conditions: Table 1B, in µg/mL (unit assumed). The procedure: as §1
An additional plate containing a compound having known susceptibility patterns for the organisms being tested and belonging to the same antibiotic class as the test compound was also prepared and incubated as a further control, as well as to provide test-to-test comparability. Erythromycin A was used for this purpose.
as §3

Assay [14] has as its system Staphylococcus aureus 1775. Briefly: In vitro agar dilution MIC, organism code GG. To be noted: Table 1B, unit assumed. How it is done:
as §1, §2, §3

Assay [15] concerns Staphylococcus aureus NCTC10649M. Kind of assay: In vitro agar dilution MIC, organism code EE. To be noted: Table 1B, unit assumed. How it is done: as §1, §2, §3
Assay [16] concerns Staphylococcus epidermidis 3519. Kind of assay: In vitro agar dilution MIC, organism code HH. As to conditions: Table 1B, in µg/mL (unit assumed). The procedure: as §1, §2, §3
A further assay relates to Candida albicans CCH 442. Kind of assay: In vitro agar dilution MIC, organism code TT. To be noted: Table 1B, unit assumed. How it is done: as §1, §2, §3
The test system of assay [17] is Streptococcus agalactiae CMX 508. Briefly: In vitro agar dilution MIC, organism code KK. As to conditions: Table 1B, unit assumed. How it is done: as §1, §2, §3
The subject of another assay is Escherichia coli SS. Briefly: In vitro agar dilution MIC, organism code RR. To be noted: Table 1B, in µg/mL (unit assumed). The procedure:
as §1, §2, §3

The subject of the next assay is Escherichia coli DC-2. Briefly: In vitro agar dilution MIC, organism code SS. To be noted: Table 1B, unit assumed. How it is done:
as §1, §2, §3

Assay [18] deals with Streptococcus bovis A-5169. Briefly: In vitro agar dilution MIC, organism code JJ. To be noted: Table 1B, unit assumed. How it is done:
as §1, §2, §3

The test system of assay [19] is Streptococcus pneumoniae GYR 1171. Briefly: In vitro agar dilution MIC, organism code YY. As to conditions: Table 1B, unit assumed. The procedure:
as §1, §2, §3

In assay [20] the test system is Micrococcus luteus ATCC 4698. Kind of assay: In vitro agar dilution MIC, organism code PP. As to conditions: Table 1B, in µg/mL (unit assumed). The procedure: as §1, §2, §3
A further assay has as its system Escherichia coli JUHL. Briefly: In vitro agar dilution MIC, organism code QQ. To be noted: Table 1B, in µg/mL (unit assumed). How it is done: as §1, §2, §3
The test system of assay [21] is Mycobacterium smegmatis ATCC 114. Kind of assay: In vitro agar dilution MIC, organism code UU. As to conditions: Table 1B, in µg/mL (unit assumed). The procedure: as §1, §2, §3
In assay [22] the test system is Staphylococcus aureus CMX 642A. Kind of assay: In vitro agar dilution MIC, organism code DD. As to conditions: Table 1B, unit assumed. How it is done:
as §1, §2, §3

The test system of assay [23] is Staphylococcus aureus CMX 553. Kind of assay: In vitro agar dilution MIC, organism code FF. As to conditions: Table 1B, unit assumed. How it is done: as §1, §2, §3

≈ marks a conversion by molar mass, not a printed value.

`CC[C@H]1OC(=O)[C@H](C)C(=O)[C@H](C)[C@@H](O[C@@H]2O[C@H](C)C[C@H](N(C)C)[C@H]2O)[C@](C)(OC)C[C@@H](C)C2=NCCN3C(=O)O[C@@]1(C)[C@H]3[C@H]2C` [Standard (X is H), reference compound]: the MIC in assay [1] (Table 1C) was above 100 µg/mL; in [2] (Table 1C) it was 0.06 µg/mL (≈ 0.0941 µM); in assay [3] (Table 1C), 0.5 µg/mL (≈ 0.784 µM); in assay [4] (Table 1C), 4 µg/mL (≈ 6.27 µM); in [5] (Table 1C), 0.02 µg/mL (≈ 0.0314 µM); in assay [6] (Table 1C) it was 0.2 µg/mL (≈ 0.314 µM). Besides, the MIC in assay [7] (Table 1C) was above 128 µg/mL; in assay [8] (Table 1C) it was above 100 µg/mL; in assay [9] (Table 1C) it was 0.2; in [10] (Table 1C), 0.39 µg/mL (≈ 0.611 µM).
Take `CC[C@H]1OC(=O)[C@@](C)(F)C(=O)[C@H](C)[C@@H](O[C@@H]2O[C@H](C)C[C@H](N(C)C)[C@H]2O)[C@](C)(OC/C=C/c2cnc3ccc(CS(N)(=O)=O)cc3c2)C[C@@H](C)C(=O)[C@H](C)[C@H]2NC(=O)O[C@@]21C` [Example 14]: the MIC in [1] (Table 1B) is above 100 µg/mL; in [11], 0.1 µg/mL (≈ 0.114 µM); in assay [2] (Table 1B) it was at most 0.004 µg/mL; in [12], 0.01 µg/mL (≈ 0.0114 µM); in assay [3] (Table 1B), 0.25 µg/mL (≈ 0.285 µM); in assay [13] it was 0.1. Besides, the MIC in [14] is above 100 µg/mL; in assay [4] (Table 1B) it was 2 µg/mL (≈ 2.28 µM); in assay [15] it was 0.1 µg/mL (≈ 0.114 µM); in assay [16], 0.1; against Candida albicans CCH 442, above 100 µg/mL; in [5] (Table 1B), 0.01 µg/mL (≈ 0.0114 µM). Besides, the MIC in [17] was 0.01 µg/mL (≈ 0.0114 µM); in assay [6] (Table 1B) it was 0.05 µg/mL (≈ 0.057 µM); in the assay on Escherichia coli SS, 0.1; against Escherichia coli DC-2, 100 µg/mL (≈ 114 µM); in [18], at most 0.005 µg/mL; in assay [19], at most 0.004 µg/mL. Besides, the MIC amounted to 0.2 in [20]; 2 µg/mL (≈ 2.28 µM) in assay [7] (Table 1B); 50 in the assay on Escherichia coli JUHL; 0.1 in [9] (Table 1B); 3.1 in [21]; 0.1 µg/mL (≈ 0.114 µM) in assay [22]. The MIC in assay [23] was 0.1 µg/mL (≈ 0.114 µM); in [10] (Table 1B), 0.2 µg/mL (≈ 0.228 µM).
Turning to `CC[C@H]1OC(=O)C(C)(F)C(=O)[C@H](C)[C@@H](O[C@@H]2O[C@H](C)C[C@H](N(C)C)[C@H]2O)[C@](C)(OC)C[C@@H](C)C2=NCCN3C(=O)O[C@@]1(C)[C@H]3[C@H]2C` (some centres unmarked) [Example 1], the MIC was above 100 µg/mL in [1] (Table 1B); above 100 µg/mL in assay [1] (Table 1C); 0.05 µg/mL (≈ 0.0762 µM) in assay [11]; 0.03 µg/mL (≈ 0.0457 µM) in [2] (Table 1B); 0.03 µg/mL (≈ 0.0457 µM) in assay [2] (Table 1C); 0.02 µg/mL (≈ 0.0305 µM) in assay [12]. Besides, the MIC in [3] (Table 1B) is 0.5 µg/mL (≈ 0.762 µM); in assay [3] (Table 1C), 0.5 µg/mL (≈ 0.762 µM); in assay [13], 0.05; in assay [14], above 100 µg/mL; in [4] (Table 1B) it was 2 µg/mL (≈ 3.05 µM); in assay [4] (Table 1C) it was 2 µg/mL (≈ 3.05 µM). Further, the MIC is 0.2 µg/mL (≈ 0.305 µM) in assay [15]; 0.2 in assay [16]; above 100 µg/mL with Candida albicans CCH 442; 0.01 µg/mL (≈ 0.0152 µM) in assay [5] (Table 1B); 0.03 µg/mL (≈ 0.0457 µM) in assay [5] (Table 1C); 0.02 µg/mL (≈ 0.0305 µM) in assay [17]. Besides, the MIC in [6] (Table 1B) stood at 0.1 µg/mL (≈ 0.152 µM); in assay [6] (Table 1C), 0.1 µg/mL (≈ 0.152 µM); in the assay with Escherichia coli SS, 0.2; against Escherichia coli DC-2, 25 µg/mL (≈ 38.1 µM); in assay [18], 0.01 µg/mL (≈ 0.0152 µM); in assay [19], 0.03 µg/mL (≈ 0.0457 µM). Also, the MIC in assay [20] was 0.2; against Escherichia coli JUHL it was above 50; in assay [8] (Table 1B), above 100 µg/mL; in [8] (Table 1C), above 128 µg/mL; in [9] (Table 1B), 0.1; in assay [9] (Table 1C), 0.1. In addition, the MIC was determined as 0.2 in assay [21]; 0.1 µg/mL (≈ 0.152 µM) in [22]; 0.1 µg/mL (≈ 0.152 µM) in [23]; 0.2 µg/mL (≈ 0.305 µM) in assay [10] (Table 1B); 0.5 µg/mL (≈ 0.762 µM) in [10] (Table 1C).
